Reference: patent publication US12043625B2, “Pyridine derivatives with c-linked cyclic substituents as cGAS inhibitors” (BOEHRINGER INGELHEIM INTERNATIONAL GMBH, priority 2021, dated 2024)

Columns and labels:
Human cGAS = Human cGAS (Homo sapiens (Human), UniProt Q8N884); test: Human cGAS enzyme assay (hcGAS IC50, in vitro), cGAMP formation by RapidFire MS; assay type: biochemical; conditions: 45 bp dsDNA, GTP/ATP;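 note: compounds preincubated 60 min, then GTP and ATP (30 µM each) added for 90 min at room temperature, cGAMP read relative to cyclic-di-GMP internal standard, no-enzyme/DNA wells as 0%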
[1] = tested on: IFN induction in cGAMP-stimulated THP1 cells; test: cGAMP stimulated counter cell assay, THP1-Dual cells, Lucia luciferase reporter (THP1(cGAMP) IC50); assay type: cell-based; conditions: Homo sapiens, THP-1, THP1-Dual cells stimulated with 10 μM cGAMP;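 note: IRF-driven Lucia luciferase luminescence after 18 h at 37° C, compound series topping at 10 µM with 1% DMSO, unstimulated wells as 0% and DMSO wells as 100%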
Source text: 6.2 Method: Human cGAS Cell Assay and cGAMP Stimulated Counter Cell Assay (THP1(vir) IC50 and THP1(cGAMP) IC50)
THP1-Dual™ cells (InvivoGen #thpd-nfis) expressing IRF dependent Lucia luciferase reporter were used as basis for both assays.
(§1) For the counter assay, cells were stimulated by cGAMP (SigmaAldrich #SML1232) to activate the identical pathway independent and directly downstream of cGAS (measurement of THP1(cAMP) IC50). Pathway activity was monitored by measuring the Lucia luciferase activity induced by either DNA stimulated cGAS enzyme activity (measurement of THP1^(vir) IC50) or by cGAMP directly (measurement of THP1(cAMP) IC50, counter assay).
Compounds were delivered in 10 mM DMSO solution, serially diluted and transferred to the 384 well assay plate (Greiner #781201) using an Echo acoustic dispenser. Typically, 8 concentrations were used with the highest concentration at 10 μM in the final assay volume followed by ˜1:5 dilution steps. DMSO concentration was set to 1% in the final assay volume. The 384 well assay plate contained 21 test compounds (column 1-22), and DMSO in column 23 and 24.
(§2) 30 μL of the cell/virus-mix were added to each well of the compound plate from column 1-23 via MultiDrop Combi dispenser (5000 cells/well). In column 24, 30 μl/5000 cells/well without virus were added as a low control.
(§3) The plates were then incubated for 18 h at 37° C. in a humidified incubator.
(§4) Following that, 15 μL of QuantiLuc detection reagent (InvivoGen #rep-qlcg5) were added to each well using a MultiDrop Combi. Measurement was done immediately after the addition using an EnVision reader (US-luminescence read-mode).
Data Evaluation and Calculation:
(§5) For data evaluation and calculation, the measurement of the low control was set as 0% control and the measurement of the high control was set as 100% control. The IC50 values were calculated using the standard 4 parameter logistic regression formula. Calculation: [y=(a−d)/(1+(x/c)^b)+d], a=low value, d=high value; x=conc M; c=1C50 M; b=slope

[2] = tested on: IFN induction in virus-stimulated THP1 cells; test: Human cGAS cell assay, baculovirus-stimulated THP1-Dual cells, Lucia luciferase reporter (THP1(vir) IC50); assay type: cell-based; conditions: for IC50: Homo sapiens, THP-1, baculovirus-stimulated THP1-Dual cells, 18 h; for Ratio THP(cGAMP) IC50/THP(vir) IC50: selectivity for cGAS inhibition;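 for all read-outs here: IRF-dependent luminescence, 8 concentrations up to 10 µM in 1% DMSO, 0% = unstimulated cells, 100% = DMSO plus virus, counter assay stimulated with cGAMP downstream of cGAS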
Source text: THP1-Dual™ cells (InvivoGen #thpd-nfis) expressing IRF dependent Lucia luciferase reporter were used as basis for both assays. For the detection of cellular cGAS activity cells were stimulated by a baculovirus (pFastbac-1, Invitrogen, no coding insert) infection that delivers the cGAS enzyme stimulating double-stranded DNA (measurement of THP1(vir) IC50).
as §1
Typically, 8 concentrations were used with the highest concentration at 10 μM in the final assay volume followed by ˜1:5 dilution steps. DMSO concentration was set to 1% in the final assay volume. The 384 well assay plate contained 21 test compounds (column 1-22), and DMSO in column 23 and 24.
The baculovirus solution was then added 1:200 (may have varied according to virus batch) to the cells (measurement of THP1(vir) IC50).
as §2, §3, §4
Data Evaluation and Calculation:
as §5

[3] = tested on: IFN induction in dsDNA-stimulated human whole blood; test: Human whole blood assay, dsDNA transfection, IFNα2a production (hWB IC50); assay type: cell-based;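 note: cGAS pathway activity, IFNα2a in plasma by MSD immunoassay after 22 h at 37 °C, 8 concentrations up to 10 µM in 0.1% DMSO, DMSO controls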
Procedure: For the detection of cellular cGAS activity human whole blood was stimulated by transfection with double stranded DNA. Pathway activity was monitored by measuring the IFNα2α production.
Typically, 8 concentrations were used with the highest concentration at 10 μM in the final assay volume followed by ˜1:5 dilution steps. DMSO concentration was set to 0.1% in the final assay volume. The 96-well assay plate contained 10 test compounds, and DMSO in control wells.
Whole blood was kept at room temperature for a maximum of 3 hours after collection until use in the assay.
160 μl of the whole blood samples was transferred to each well of the 96-well assay plates filled with compound/OptiMEM. All assay plates were prepared as duplicates with blood from different donors. Blood plates were kept at room temperature for 60 minutes and continuous shaking with 450 rpm, covered with the lid, but not sealed.
20 μl OptiMEM and 9.6:1 Fugene was added to all low control wells.
After covering assay plates with aera seals and the lid, blood plates were kept at room temperature for 30 minutes and continuous shaking with 450 rpm, followed by an overnight incubation of 22 h at 37° C. in the incubator, without shaking.
U-Plex MSD GOLD 96-well Small Spot Strepavidin SECTOR Plates (Meso Scale Diagnostics #L45SA-5) were coated with 25 μl diluted capture antibody. Coated plates were incubated for 60 min at room temperature under continuous shaking at 700 rpm. MSD IFNα-2a plates were washed three times with 150 μl wash buffer (1×HBSS, 0.05% Tween).
After blocking the plates with 100 μl block solution/well (1×HBSS with 0.2% Tween, 2% BSA) for 60 min at room temperature and continuous shaking at 700 rpm, plates were emptied as dry as possible by dumping just before continuing with the human plasma.
Whole Blood assay plates were centrifuged at 1600 rpm for 10 minutes. 25 μl of supernatant was transferred with a pipetting robot from each whole blood plate to the corresponding IFNα-2a plate.
Plates were sealed with microplate seals and kept at room temperature again under continuous shaking at 700 rpm for two hours.
Next MSD IFNα-2a plates were washed three times with 150 μl wash buffer (1×HBSS, 0.05% Tween), before adding 25 μl MSD SULFO-TAG IFNα-2a Antibody solution (1:100 diluted in Diluent 3 (Meso Scale Diagnostics #R50AP-2) to each well of the plates.
Afterwards plates were sealed with microplate seals and kept at room temperature again under continuous shaking at 700 rpm for two hours. Finally, MSD IFNα-2α plates were washed three times with 150 μl wash buffer (1×HBSS, 0.05% Tween). 150 μl 2× Read buffer was added to each well and plates were immediately measured with the MSD Sector S600 Reader using the vendor barcode.
For data evaluation and calculation, % control calculation of each well was based on the mean of high (DNA stimulated control) and mean of low (unstimulated control) controls by using the following formula: [counts(sample)−counts(low))/(counts(high)−counts(low))]*100
The IC50 values were calculated using the standard 4 parameter logistic regression formula. Calculation: [y=(a−d)/(1+(x/c)^b)+d], a=low value, d=high value; x=conc M; c=1C50 M; b=slope

Chain of Human cGAS (Q8N884 whole entry): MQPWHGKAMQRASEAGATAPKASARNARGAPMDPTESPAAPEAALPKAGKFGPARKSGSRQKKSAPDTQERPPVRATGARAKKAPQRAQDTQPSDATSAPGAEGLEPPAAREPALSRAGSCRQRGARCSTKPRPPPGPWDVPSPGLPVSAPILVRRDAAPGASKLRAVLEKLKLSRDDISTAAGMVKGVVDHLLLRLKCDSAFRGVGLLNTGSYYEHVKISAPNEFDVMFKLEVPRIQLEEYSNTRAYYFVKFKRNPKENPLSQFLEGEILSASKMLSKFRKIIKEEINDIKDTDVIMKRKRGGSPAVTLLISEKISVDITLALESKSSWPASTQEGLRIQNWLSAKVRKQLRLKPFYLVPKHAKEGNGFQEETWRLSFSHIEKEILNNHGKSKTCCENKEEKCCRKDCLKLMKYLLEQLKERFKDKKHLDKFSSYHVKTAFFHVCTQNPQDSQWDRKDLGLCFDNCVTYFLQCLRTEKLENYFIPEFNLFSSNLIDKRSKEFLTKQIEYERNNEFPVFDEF

C[C@H]1COCC[C@]1(O)c1cc(Cl)cnc1O[C@H]1C[C@@H](C(=O)O)N(c2nc(C(F)F)nc3c2oc2ccccc23)C1 [Example 1.01, (2S,4S)-4-({5-Chloro-3-[(3S,4R)-4-hydroxy-3-methyloxan-4-yl]pyridin-2-yl}oxy)-1-[4-(difluoro-methyl)-8-oxa-3,5-diazatricyclo[7.4.0.0^2,7]trideca-1(13),2,4,6,9,11-hexaen-6-yl]pyrrolidine-2-carboxylic acid]
IC50 (Human cGAS): 5 nM
IC50 [1]: > 16600 nM
IC50 [2]: 530 nM
Ratio THP(cGAMP) IC50/THP(vir) IC50 [2]: >31

C#Cc1cnc(O[C@H]2C[C@@H](C(=O)O)N(c3nc(C(F)F)nc4c3oc3ccccc34)C2)c([C@@]2(F)CCOC[C@@H]2C)c1 [Example 1.02]
IC50 (Human cGAS): 3 nM
IC50 [3]: 103 nM
IC50 [1]: 18900 nM
IC50 [2]: 351 nM
Ratio THP(cGAMP) IC50/THP(vir) IC50 [2]: 54

C#Cc1cnc(O[C@H]2C[C@@H](C(=O)O)N(c3nc(C(F)F)nc4c3oc3ccccc34)C2)c([C@]2(F)CCOC[C@@H]2C)c1 [Example 1.03]
IC50 (Human cGAS): 2 nM
IC50 [3]: 137 nM
IC50 [1]: > 16600 nM
IC50 [2]: 283 nM
Ratio THP(cGAMP) IC50/THP(vir) IC50 [2]: >59

C#Cc1cnc(O[C@H]2C[C@@H](C(=O)O)N(c3nc(C(F)(F)F)nc4c3oc3ccccc34)C2)c([C@]2(F)CCOC[C@@H]2C)c1 [Example 1.04]
IC50 (Human cGAS): 4 nM
IC50 [3]: 648 nM
IC50 [1]: 24900 nM
IC50 [2]: 378 nM
Ratio THP(cGAMP) IC50/THP(vir) IC50 [2]: 66

CO[C@]1(c2cc(Cl)cnc2O[C@H]2C[C@@H](C(=O)O)N(c3nc(C(F)F)nc4c3oc3ccccc34)C2)CC(C)(C)S(=O)(=O)C[C@@H]1C [Example 1.05]
IC50 (Human cGAS): 2 nM
IC50 [3]: 135 nM
IC50 [1]: 13200 nM
IC50 [2]: 44 nM
Ratio THP(cGAMP) IC50/THP(vir) IC50 [2]: 298

C[C@H]1CS(=O)(=O)C(C)(C)C[C@]1(F)c1cc(Cl)cnc1O[C@H]1C[C@@H](C(=O)O)N(c2nc(C(F)(F)F)nc3c2oc2ccccc23)C1 [Example 1.06]
IC50 (Human cGAS): 5 nM
IC50 [3]: 24 nM
IC50 [1]: 5820 nM
IC50 [2]: 12 nM
Ratio THP(cGAMP) IC50/THP(vir) IC50 [2]: 479

C[C@H]1CS(=O)(=O)C(C)(C)C[C@@]1(F)c1cc(Cl)cnc1O[C@H]1C[C@@H](C(=O)O)N(c2nc(C(F)(F)F)nc3c2oc2ccccc23)C1 [Example 1.07]
IC50 (Human cGAS): 69 nM
IC50 [3]: 213 nM
IC50 [1]: 3680 nM
IC50 [2]: 216 nM
Ratio THP(cGAMP) IC50/THP(vir) IC50 [2]: 17

C#Cc1cnc(O[C@H]2C[C@@H](C(=O)O)N(c3nc(C(F)(F)F)nc4c3oc3ccccc34)C2)c([C@@]2(F)CC(C)(C)S(=O)(=O)C[C@@H]2C)c1 [Example 1.08]
IC50 (Human cGAS): 4 nM
IC50 [3]: 16 nM
IC50 [1]: 13900 nM
IC50 [2]: 4 nM
Ratio THP(cGAMP) IC50/THP(vir) IC50 [2]: 3275

C#Cc1cnc(O[C@H]2C[C@@H](C(=O)O)N(c3nc(C(F)F)nc4c3oc3ccccc34)C2)c([C@@]2(F)CC(C)(C)S(=O)(=O)C[C@@H]2C)c1 [Example 1.09]
IC50 (Human cGAS): 4 nM
IC50 [3]: 4 nM
IC50 [1]: 15800 nM
IC50 [2]: < 5 nM
Ratio THP(cGAMP) IC50/THP(vir) IC50 [2]: >2935

C#Cc1cnc(O[C@H]2C[C@@H](C(=O)O)N(c3nc(C(F)F)nc4c3oc3ccccc34)C2)c([C@]2(F)CC(C)(C)S(=O)(=O)C[C@@H]2C)c1 [Example 1.10]
IC50 (Human cGAS): 40 nM
IC50 [3]: 70 nM
IC50 [1]: 2240 nM
IC50 [2]: 82 nM
Ratio THP(cGAMP) IC50/THP(vir) IC50 [2]: 28

C[C@H]1CS(=O)(=O)CC[C@@]1(F)c1cc(Cl)cnc1O[C@H]1C[C@@H](C(=O)O)N(c2nc(C(F)F)nc3c2oc2ccccc23)C1 [Example 1.11]
IC50 (Human cGAS): 2 nM
IC50 [3]: 194 nM
IC50 [1]: > 16600 nM
IC50 [2]: 731 nM

C[C@@H]1CS(=O)(=O)CC[C@@]1(F)c1cc(Cl)cnc1O[C@H]1C[C@@H](C(=O)O)N(c2nc(C(F)F)nc3c2oc2ccccc23)C1 [Example 1.12]
IC50 (Human cGAS): 9 nM
IC50 [1]: 15300 nM
IC50 [2]: 314 nM

C[C@H]1CS(=O)(=O)CC[C@]1(F)c1cc(Cl)cnc1O[C@H]1C[C@@H](C(=O)O)N(c2nc(C(F)F)nc3c2oc2ccccc23)C1 [Example 1.13]
IC50 (Human cGAS): 2 nM
IC50 [3]: 6 nM
IC50 [1]: 22500 nM
IC50 [2]: 6 nM

C#Cc1cnc(O[C@H]2C[C@@H](C(=O)O)N(c3nc(C(F)(F)F)nc4c3oc3ccccc34)C2)c([C@]2(F)CCS(=O)(=O)C(C)(C)C2)c1 [Example 1.14]
IC50 (Human cGAS): 9 nM
IC50 [3]: 53 nM
IC50 [1]: 5280 nM
IC50 [2]: 42 nM
Ratio THP(cGAMP) IC50/THP(vir) IC50 [2]: 127

C#Cc1cnc(O[C@H]2C[C@@H](C(=O)O)N(c3nc(C(F)F)nc4c3oc3ccccc34)C2)c([C@]2(F)CCS(=O)(=O)C(C)(C)C2)c1 [Example 1.15]
IC50 (Human cGAS): 6 nM
IC50 [3]: 22 nM
IC50 [1]: 10200 nM
IC50 [2]: 11 nM
Ratio THP(cGAMP) IC50/THP(vir) IC50 [2]: 963

C[C@H]1CS(=O)(=O)C(C)(C)C[C@]1(F)c1cc(Cl)cnc1O[C@H]1C[C@@H](C(=O)O)N(c2nc(C(F)F)nc3c2oc2ccccc23)C1 [Example 1.16]
IC50 (Human cGAS): 5 nM
IC50 [3]: 6 nM
IC50 [1]: 8240 nM
IC50 [2]: 8 nM
Ratio THP(cGAMP) IC50/THP(vir) IC50 [2]: 1055

O=C(O)[C@@H]1C[C@H](Oc2ncc(Cl)cc2[C@]2(F)CCS(=O)(=O)C3(CC3)C2)CN1c1nc(C(F)F)nc2c1oc1ccccc12 [Example 1.17]
IC50 (Human cGAS): 3 nM
IC50 [3]: 45 nM
IC50 [1]: 22100 nM
IC50 [2]: 54 nM
Ratio THP(cGAMP) IC50/THP(vir) IC50 [2]: 412

O=C(O)[C@@H]1C[C@H](Oc2ncc(Cl)cc2[C@@]2(F)CCS(=O)(=O)C3(CC3)C2)CN1c1nc(C(F)F)nc2c1oc1ccccc12 [Example 1.18]
IC50 (Human cGAS): 9 nM
IC50 [3]: 287 nM
IC50 [1]: 10900 nM
IC50 [2]: 535 nM
Ratio THP(cGAMP) IC50/THP(vir) IC50 [2]: 20

O=C(O)[C@@H]1C[C@H](Oc2ncc(Cl)cc2[C@@]2(F)CCS(=O)(=O)C3(COC3)C2)CN1c1nc(C(F)F)nc2c1oc1ccccc12 [Example 1.19]
IC50 (Human cGAS): 5 nM
IC50 [3]: 316 nM
IC50 [1]: 14000 nM
IC50 [2]: 566 nM
Ratio THP(cGAMP) IC50/THP(vir) IC50 [2]: 25

O=C(O)[C@@H]1C[C@H](Oc2ncc(Cl)cc2[C@]2(F)CCS(=O)(=O)C3(COC3)C2)CN1c1nc(C(F)F)nc2c1oc1ccccc12 [Example 1.20]
IC50 (Human cGAS): 3 nM
IC50 [3]: 55 nM
IC50 [1]: 15500 nM
IC50 [2]: 139 nM
Ratio THP(cGAMP) IC50/THP(vir) IC50 [2]: 111

O=C(O)[C@@H]1C[C@H](Oc2ncc(Cl)cc2[C@]2(F)CCS(=O)(=O)C3(CCC3)C2)CN1c1nc(C(F)F)nc2c1oc1ccccc12 [Example 1.21]
IC50 (Human cGAS): 5 nM
IC50 [3]: 76 nM
IC50 [1]: 9280 nM
IC50 [2]: 126 nM
Ratio THP(cGAMP) IC50/THP(vir) IC50 [2]: 74

CC(=O)N1CC[C@](F)(c2cc(Cl)cnc2O[C@H]2C[C@@H](C(=O)O)N(c3nc(C(F)F)nc4c3oc3ccccc34)C2)[C@@H](C)C1 [Example 1.22]
IC50 (Human cGAS): 4 nM
IC50 [3]: 114 nM
IC50 [1]: 16100 nM
IC50 [2]: 85 nM
Ratio THP(cGAMP) IC50/THP(vir) IC50 [2]: 189

C[C@H]1CN(C2COC2)CC[C@]1(F)c1cc(Cl)cnc1O[C@H]1C[C@@H](C(=O)O)N(c2nc(C(F)F)nc3c2oc2ccccc23)C1 [Example 1.23]
IC50 (Human cGAS): 15 nM
IC50 [3]: 165 nM
IC50 [1]: 8400 nM
IC50 [2]: 185 nM
Ratio THP(cGAMP) IC50/THP(vir) IC50 [2]: 45

C[C@H]1CN(C(N)=O)CC[C@]1(F)c1cc(Cl)cnc1O[C@H]1C[C@@H](C(=O)O)N(c2nc(C(F)F)nc3c2oc2ccccc23)C1 [Example 1.24]
IC50 (Human cGAS): 7 nM
IC50 [3]: 479 nM
IC50 [1]: 21800 nM
IC50 [2]: 248 nM
Ratio THP(cGAMP) IC50/THP(vir) IC50 [2]: 88

O=C(O)[C@@H]1C[C@H](Oc2ncc(Cl)cc2[C@]2(F)CCOC[C@@H]2C(F)(F)F)CN1c1nc(C(F)F)nc2c1oc1ccccc12 [Example 1.25]
IC50 (Human cGAS): 10 nM
IC50 [3]: 502 nM
IC50 [1]: 13500 nM
IC50 [2]: 712 nM
Ratio THP(cGAMP) IC50/THP(vir) IC50 [2]: 19

O=C(O)[C@@H]1C[C@H](Oc2ncc(Cl)cc2C2(F)CCS(=O)(=O)CC2)CN1c1nc(C(F)F)nc2c1oc1ccccc12 [Example 2.01, (2S,4S)-4-{[5-Chloro-3-(4-fluoro-1,1-dioxo-1-I-6-thian-4-yl)pyridin-2-yl]oxy}-1-[4-(difluoromethyl)-8-oxa-3,5-diazatricyclo[7.4.0.0^2,7]trideca-1(13),2,4,6,9,11-hexaen-6-yl]pyrrolidine-2-carboxylic acid]
IC50 (Human cGAS): 3 nM
IC50 [1]: > 16600 nM
IC50 [2]: 179 nM
Ratio THP(cGAMP) IC50/THP(vir) IC50 [2]: >93

O=C(O)[C@@H]1C[C@H](Oc2ncc(Cl)cc2C2(F)CCS(=O)(=O)CC2)CN1c1nc(C(F)(F)F)nc2c1oc1ccccc12 [Example 2.02]
IC50 (Human cGAS): 4 nM
IC50 [3]: 89 nM
IC50 [1]: > 16600 nM
IC50 [2]: 540 nM
Ratio THP(cGAMP) IC50/THP(vir) IC50 [2]: >31

C#Cc1cnc(O[C@H]2C[C@@H](C(=O)O)N(c3nc(C(F)F)nc4c3oc3ccccc34)C2)c(C2(F)CCS(=O)(=O)CC2)c1 [Example 2.03]
IC50 (Human cGAS): 2 nM
IC50 [3]: 40 nM
IC50 [1]: > 16600 nM
IC50 [2]: 112 nM
Ratio THP(cGAMP) IC50/THP(vir) IC50 [2]: >148

Cc1nc(N2CCC[C@H]2C(=O)O)c2oc3ccccc3c2n1 [Example 15, reference compound]
IC50 [1]: > 17000 nM
IC50 [2]: > 17000 nM

Cc1nc(N2C[C@@H](CC(=O)Nc3ccncc3)C[C@H]2C(=O)O)c2oc3ccccc3c2n1 [Example 28, reference compound]
IC50 [3]: > 9990 nM
IC50 [1]: > 17000 nM
IC50 [2]: > 32000 nM

Cc1nc(N2C[C@@H](Nc3ccncc3)C[C@H]2C(=O)O)c2oc3ccccc3c2n1 [Example 38, reference compound]
IC50 [3]: > 9990 nM
IC50 [1]: > 17000 nM
IC50 [2]: > 17000 nM

CC(C)(C(=O)N[C@H]1C[C@@H](C(=O)O)N(c2nc(C(F)(F)F)nc3c2oc2ccccc23)C1)c1cn[nH]c1 [Example 58, reference compound]
IC50 [3]: > 9980 nM
IC50 [1]: 23000 nM
IC50 [2]: 21000 nM
